# Test results taken from paper PMC2843403 (Bioorganic & medicinal chemistry, 2010).
# Tests used:
# PKCδ C1B [1] = target: T1, PKCδ C1B (Mus musculus, UniProt P28867); experiment: Fluorescence quenching binding to PKCδ C1B; conditions: fit of fluorescence quenching of PKCδ C1B (2 μM), Fig. 3
# Target sequence in this assay (P28867 231-280): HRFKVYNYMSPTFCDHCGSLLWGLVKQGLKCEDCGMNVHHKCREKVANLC
# Solubility = format: physicochemical
# PKCδ C1B [2] = target: T1, PKCδ C1B; experiment: Emission maximum of ligand in presence of PKCδ C1B; format: binding; conditions: buffer versus presence of C1B subdomain (590 to 560 nm)
# Target sequence in this assay (P28867 231-280 limits assumed): as the sequence (P28867 231-280) above
Hill coefficient (PKCδ C1B [1]),Solubility in water (Solubility),Blue shift of emission maximum (PKCδ C1B [2]),SMILES
1.6,poorly soluble,,"COc1cc(/C=C/C(=O)CC(=O)/C=C/c2ccc(O)c(OC)c2)ccc1O [Compound 1, Curcumin]"
2,,30 nm,"CCCCCCCCCCCCCCCCOc1ccc(/C=C/C(O)=C/C(=O)/C=C/c2ccc(O)c(OC)c2)cc1OC [Compound 4, (1E, 4Z, 6E)-7-(4-(hexadecyloxy)-3-methoxyphenyl)-5-hydroxy-1-(4-hydroxy-3-methoxyphenyl)hepta-1,4,6-trien-3-one]"

SMILES,Hill coefficient (PKCδ C1B [1]),Solubility in water (Solubility),Blue shift of emission maximum (PKCδ C1B [2])
"CCCCCCCCCCCCCC(=O)O[C@@H]1[C@@H](C)[C@@]2(O)[C@@H](C=C(CO)C[C@]3(O)C(=O)C(C)=C[C@@H]23)[C@@H]2C(C)(C)[C@]12OC(C)=O [TPA, 12-O-tetradecanoylphorbol-13-acetate, reference compound]",1.8,,
